Columns and labels:
[1] = system: Antibiotic-resistant staphylococcal, enterococcal, enterobacterial or acinetobacter isolates; assay: Broth micro-dilution assay in clinical patient isolates, compound in combination with tetracyclines; type: cell-based; conditions: 4 μg/ml tetracyclines and 10 μg/ml compound; OD610 16 to 20 hours after inoculation, normalized to DMSO control (100%)
Text: Microdilution Assay in Clinical Patient Isolates
Broth Micro-Dilution Assay in Cation-Adjusted Mueller-Hinton (CA-MHB)
The assay protocol is adapted from the Clinical and Laboratory Standards Institute (CLSI) standardized method for broth microdilution. This methodology was used to evaluate the susceptibility of pathogenic clinical isolates towards different antibiotics in combination with a compound of the invention.
Antibiotic-resistant staphylococcal, enterococcal, enterobacterial or acinetobacter isolates were scraped from fresh Orientation Agar plates, suspended in saline solution with the turbidity adjusted to OD610 of 0.1 (corresponds to 0.5 McFarland scale). Subsequently, the cultures were diluted 160× in CA-MHB medium and a volume of 80 μl was dispensed into each well of a 96 well microtiter plate. Plates were covered and incubated for 16 to 20 hours at 35° C. without shaking. Plates were then visually analyzed, scanned and subsequently the OD610 was determined. Average and standard deviations were calculated from at least two wells with the same condition. Values were normalized to the DMSO control (which is 100%).
(§1) Correlation of the synergistic effect of compounds of the invention with tetracyclines on bacterial growth inhibition (% growth relative to DMSO; 4 μg/ml tetracyclines and 10 μg/ml compounds of the invention) and TetR/tetO interaction (% association of TetR to tetO relative to DMSO). Bacterial growth was analysed 16 to 20 hours after inoculation according to CLSI guidelines. OD610 was determined with a Tecan Infinite F200 and normalized to the DMSO control. The interaction of TRIC compounds with the TetR protein and the effect on TetR-tetO operator DNA binding was analyzed with a FortéBio's Octet red and normalized to the DMSO control.

TetR/tetO interaction = assay: DNA/protein (tetO/TetR) interaction assay, FortéBio Octet Red; type: binding; conditions: % association of TetR to tetO; compound 10 μg/mL & tetracycline 10 ng/mL mix in running buffer; normalized to DMSO control
Procedure: Biacore Based DNA/Protein (tetO/TetR) Interaction Assay
The FortéBio technology (FortéBio, Inc., Menlo Park, Calif., USA) is a novel label-free methodology for analyzing macromolecular ligand/capture interactions. The Octet system can be used to measure real-time, label-free analysis of biomolecular interactions and provide information on affinity, kinetics and concentration. The instrument is designed to assay up to eight samples in parallel in 2 min from a standard 96-well micro-plate. The detection technology utilized in the Octet is based on Biolayer Interferometry (BLI). BLI relies on the reflective property of white light and is implemented in the Octet via the use of fiber optic-based biosensors. The biosensors are coated with molecules chosen to capture the targeted ligands. The measurements were performed on an Octet Red system equipped with streptavidin biosensor tips (SA). Tips were purchased from FortéBio.
Interaction Studies: FortéBio's Octet Red
Interaction analyses were conducted at 30° C. in running buffer (HBS-P+5 mmol/L MgSO4) unless stated otherwise. (HBS-P buffer: 10 mM Hepes (pH 7.4), 150 mM NaCl, 0.005% (v/v) polysorbate P20, and 5 mmol/L MgSO4; a 10×HBS-P buffer from GE Healthcare was used). Temperature control on the Octet was accomplished by holding the instrument at room temperature so that it could be heated to 30° C. Sensor tips were pre-wet for 10 min in running buffer immediately prior to use, and the micro plates used in the Octet were filled with 200 μl of sample or buffer per well and agitated at 600 rpm. For the experiments commercially available precoated streptavidine tips were used (SA).
Biotinylated oligos were loaded onto the FortéBio SA fibers in HBS-P buffer pH 7.4. Protein binding experiments were run with HBS-P buffer unless stated otherwise. After each run the tip was regenerated (maximum 4 times) with running buffer containing 0.3% w/v sodium dodecylsulfate (SDS).
as §1

Structure (SMILES)	Growth (% rel. to DMSO) [1] [%]	Association (% rel. to DMSO) (TetR/tetO interaction) [%]
CCCCC(=O)NCc1ccc(-c2ccccc2)cc1O [Example 12, N-[(2-hydroxy-4-phenyl-phenyl)-methyl]pentanamide]	5.76	1.60
COc1ccc(OC)c2c1CCCC2C(=O)NCC(C)C (stereo not shown) [Example 20, N-isobutyl-5,8-dimethoxy-tetralin-1-carboxamide]	63.75	97.40
O=C(Nc1nnc(-c2ccc(O)cc2)s1)C1CCc2c(O)ccc(O)c2C1 (stereo not shown) [Example 28]	46.79	36.62
CCCCC(=O)Nc1ccccc1Oc1ccc(Cl)cc1 [Example 15]	4.88	85.19
O=C(CCc1ccccc1)Nc1ccccc1Oc1ccc(Cl)cc1 [Example 16]	6.15	2.52
O=C(NCc1ccc(-c2ccccc2)cc1)C1CCc2c(O)ccc(O)c2C1 (stereo not shown) [Example 30]	15.00	25.35
O=C(NCc1ccc(C(F)(F)F)cc1)C1CCc2c(O)ccc(O)c2C1 (stereo not shown) [Example 27]	58.69	23.15
O=C(NCc1cc(F)ccc1O)C1CCc2c(O)ccc(O)c2C1 (stereo not shown) [Example 31]	68.68	20.42
COc1ccc(OC)c2c1CCC(C(=O)NCC(C)C)C2 (stereo not shown) [Example 18]	103.70	13.64
O=C(NCc1cc(C(F)(F)F)cc(C(F)(F)F)c1)C1CCc2c(O)ccc(O)c2C1 (stereo not shown) [Example 25]	90.15	11.76
O=C(NCc1cc(O)ccc1O)c1cccc(F)c1 [Example 6]	60.43	25.61
O=C(NCC1CCCCC1)C1CCc2c(O)ccc(O)c2C1 (stereo not shown) [Example 34]	13.58	21.09
O=C(Nc1ccccc1)C1CCc2c(O)ccc(O)c2C1 (stereo not shown) [Example 32]	58.27	25.35
O=C(NCCCc1ccccc1)C1CCc2c(O)ccc(O)c2C1 (stereo not shown) [Example 33]	16.62	19.05
O=C(c1cc(O)ccc1O)N1CCN(c2ccccc2)CC1 [Example 4]	63.87	–
O=C(NCCc1cc(O)ccc1O)c1ccccc1 [Example 3]	41.10	63.20
CC(C)CNC(=O)C1CCc2c(O)c3c(c(O)c2C1)C(=O)C=CC3=O (stereo not shown) [Example 22]	61.29	108.99
O=C(NCc1ccc(F)cc1F)C1CCc2c(O)ccc(O)c2C1 (stereo not shown) [Example 36]	33.52	27.89
O=C(NCc1ccccc1)C1CCc2c(O)ccc(O)c2C1 (stereo not shown) [Example 24]	48.15	54.12

Structure (SMILES)	Growth (% rel. to DMSO) [1] [%]	Association (% rel. to DMSO) (TetR/tetO interaction) [%]
O=C(NCc1cc(O)ccc1O)c1cc(C(F)(F)F)cc(C(F)(F)F)c1 [Example 11]	26.14	19.59
CC(C)(C)c1ccc(CNC(=O)C2CCc3c(O)ccc(O)c3C2)cc1 (stereo not shown) [Example 29]	23.58	–
O=C(NCc1cc(O)ccc1O)c1ccc(C(F)(F)F)cc1 [Example 9]	25.91	16.22
O=C(NCc1cc(O)ccc1O)c1cc(C(F)(F)F)ccc1C(F)(F)F [Example 10]	47.14	25.68
CC(C)CNC(=O)C1CCc2c(O)ccc(O)c2C1 (stereo not shown) [Example 19]	11.50	54.02
O=C(NCc1cc(F)ccc1F)C1CCc2c(O)ccc(O)c2C1 (stereo not shown) [Example 35]	25.80	30.61
O=C(NCc1cc(F)cc(F)c1)C1CCc2c(O)ccc(O)c2C1 (stereo not shown) [Example 23, N-[(3,5-difluorophenyl)methyl]-5,8-dihydroxy-tetralin-2-carboxamide]	8.15	22.69
CC(C)C(=O)NCc1cccc(-c2ccccc2)c1O [Example 17]	8.11	70.49
O=C(NCc1cc(O)ccc1O)c1cc(F)cc(F)c1 [Example 2]	34.40	51.60
CCC(=O)NCc1cc(OC)c(-c2ccccc2)cc1OC [Example 13]	4.74	–
O=C(NCc1cc(O)ccc1O)c1ccccc1 [Example 1, N-[(2,5-dihydroxyphenyl)methyl]benzamide]	55.20	15.84
CN(Cc1ccccc1)C(=O)C1CCc2c(O)ccc(O)c2C1 (stereo not shown) [Example 26]	55.92	43.52
CC(C)CNC(=O)C1CCc2c(c(O)c3ccccc3c2O)C1 (stereo not shown) [Example 21]	25.77	–
O=C(Nc1ccccc1Oc1ccc(Cl)cc1)C1CCc2c(O)ccc(O)c2C1 (stereo not shown) [Example 37]	10.42	14.18
O=C(NCc1cc(O)ccc1O)c1cc(F)ccc1F [Example 8]	69.68	42.57
O=C(NCc1cc(O)ccc1O)c1ccccc1F [Example 5]	56.57	30.49
CCC(=O)Nc1ccccc1Oc1ccc(Cl)cc1 [Example 14, N-[2-(4-chlorophenoxyl)phenyl]propanamide]	18.21	10.26
O=C(NCc1cc(O)ccc1O)c1cc(F)ccc1O [Example 7]	56.50	26.83

Source: patent publication US9682079B2, “Composition for treatment of pathogens that are resistant to tetracyclines” (BIOVERSYS AG, priority 2013, dated 2017)
